The record followed here is patent publication US12391702B2, “Benzo[5,6][1,4]dioxino[2,3-b]pyridine compounds useful as IRAK4 inhibitors” (BRISTOL-MYERS SQUIBB COMPANY, priority 2020, dated 2025).

IRAK4, sequence (Q9NWZ3 whole entry): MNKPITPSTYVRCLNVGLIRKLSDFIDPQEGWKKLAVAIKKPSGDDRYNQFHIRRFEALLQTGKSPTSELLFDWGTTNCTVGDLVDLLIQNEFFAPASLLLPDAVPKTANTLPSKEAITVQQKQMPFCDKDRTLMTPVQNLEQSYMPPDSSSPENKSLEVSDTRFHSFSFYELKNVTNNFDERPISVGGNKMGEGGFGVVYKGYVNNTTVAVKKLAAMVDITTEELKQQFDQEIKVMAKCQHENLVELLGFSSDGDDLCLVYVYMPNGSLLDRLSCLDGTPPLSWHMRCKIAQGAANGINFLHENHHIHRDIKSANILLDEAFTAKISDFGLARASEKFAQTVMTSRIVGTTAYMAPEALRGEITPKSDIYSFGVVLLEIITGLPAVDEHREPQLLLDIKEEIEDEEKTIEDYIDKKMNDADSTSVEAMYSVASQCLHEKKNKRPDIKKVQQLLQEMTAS

The first test concerns Human whole blood stimulated with a TLR2 agonist (lipoteichoic acid), IL-6 levels. The test is described as follows: IRAK4 Whole Blood Assay. The format is cell-based. Particulars: 10 μg/mL lipoteichoic acid for 5 hours. The method, then:
Human whole blood containing the anti-coagulant ACD-A was plated in 384-well plate (25 μL/well) and incubated with compounds for 60 minutes at 37° C. in a 5% CO2 incubator. The blood was stimulated with a TLR2 agonist, 10 μg/mL final concentration of lipoteichoic acid (Invivogen, San Diego, CA) in 25 μL RPMI (Gibco) for 5 hours in a 5% CO2 incubator. At the end of the incubation, plates were centrifuged at 2300 rpm for 5 minutes. Supernatants were harvested and analyzed for IL-6 levels by Flow Cytometry beads assay (BD Biosciences, San Jose, CA).
`CC(C)Nc1c(C(=O)NC[C@@H](F)C(C)(C)O)cnc2c1Oc1ccc(C#N)cc1O2` [Example 2, (R)-8-cyano-N-(2-fluoro-3-hydroxy-3-methylbutyl)-4-(isopropylamino)benzo[5,6][1,4]dioxino[2,3-b]pyridine-3-carboxamide] had an EC50 of 1700 nM.

A further test addresses IRAK4 (Homo sapiens (Human), UniProt Q9NWZ3). The test is described as follows: IRAK4 Inhibition Assay. Format: biochemical. Particulars: ATP 500 μM; IRAK4 0.6 nM; 60 min at room temperature. As to the method: The assays were performed in U-bottom 384-well plates. The final assay volume was 30 μL prepared from 15 μL additions of enzyme and substrates (fluoresceinated peptide and ATP) and test compounds in assay buffer (20 mM HEPES pH 7.2, 10 mM MgCl2, 0.015% Brij 35 and 4 mM DTT). The reaction was initiated by the combination of IRAK4 with substrates and test compounds. The reaction mixture was incubated at room temperature for 60 min. and terminated by adding 45 μL of 35 mM EDTA to each sample. The reaction mixture was analyzed on the Caliper LABCHIP® 3000 (Caliper, Hopkinton, MA) by electrophoretic separation of the fluorescent substrate and phosphorylated product. Inhibition data were calculated by comparison to no enzyme control reactions for 100% inhibition and vehicle-only reactions for 0% inhibition. The final concentrations of reagents in the assays are ATP, 500 μM; FL-IPTSPITTTYFFFKKK peptide 1.5 μM; IRAK4, 0.6 nM; and DMSO, 1.6%.
In the case of `CC(C)Nc1c(C(=O)NC[C@@H](F)C(C)(C)O)cnc2c1Oc1ccc(C#N)cc1O2` [Example 2, (R)-8-cyano-N-(2-fluoro-3-hydroxy-3-methylbutyl)-4-(isopropylamino)benzo[5,6][1,4]dioxino[2,3-b]pyridine-3-carboxamide], the IC50 came to 8.5 nM. Take `CC(C)Nc1c(C(=O)NC2CCOCC2)cnc2c1Oc1cc(C#N)ccc1O2` [Example 3, 7-cyano-4-(isopropylamino)-N-(tetrahydro-2H-pyran-4-yl)benzo[5,6][1,4]dioxino [2,3-b]pyridine-3-carboxamide]: the IC50 was found to be 60 nM.

Regarding `CCOCCNC(=O)c1cnc2c(c1NC(C)C)Oc1cc(C#N)ccc1O2` [Example 4, 7-cyano-N-(2-ethoxyethyl)-4-(isopropylamino)benzo[5,6][1,4]dioxino[2,3-b]pyridine-3-carboxamide], the IC50 worked out at 82 nM. `COCCNC(=O)c1cnc2c(c1NC(C)C)Oc1cc(C#N)ccc1O2` [Example 5, 7-cyano-4-(isopropylamino)-N-(2-methoxyethyl)benzo[5,6][1,4]dioxino[2,3-b]pyridine-3-carboxamide]: the IC50 turned out to be 150 nM. On the same count and under the same terms, under `CC(C)Nc1c(C(=O)N[C@H]2CC[C@H](O)CC2)cnc2c1Oc1cc(C#N)ccc1O2` [Example 6, 7-cyano-N-((1r,4r)-4-hydroxycyclohexyl)-4-(isopropylamino)benzo[5,6][1,4]dioxino[2,3-b]pyridine-3-carboxamide] stands 31 nM; under `CC(C)Nc1c(C(=O)NCC(C)(C)CO)cnc2c1Oc1cc(C#N)ccc1O2` [Example 7, 7-cyano-N-(3-hydroxy-2,2-dimethylpropyl)-4-(isopropylamino)benzo[5,6][1,4]dioxino[2,3-b]pyridine-3-carboxamide], 270 nM; under `CC(C)Nc1c(C(=O)NC(CCO)C2CC2)cnc2c1Oc1cc(C#N)ccc1O2` (centres unmarked) [Example 8, 7-cyano-N-(1-cyclopropyl-3-hydroxypropyl)-4-(isopropylamino)benzo[5,6][1,4]dioxino[2,3-b]pyridine-3-carboxamide], 220 nM. Consider `CC(C)Nc1c(C(=O)NC2CCCOC2)cnc2c1Oc1cc(C#N)ccc1O2` (centres unmarked) [Example 9, 7-cyano-4-(isopropylamino)-N-(tetrahydro-2H-pyran-3-yl)benzo[5,6][1,4]dioxino [2,3-b]pyridine-3-carboxamide], for which the IC50 turned out to be 92 nM.

In the case of `CC(C)Nc1c(C(=O)N[C@H](C)CCO)cnc2c1Oc1cc(C#N)ccc1O2` [Example 10, (R)-7-cyano-N-(4-hydroxybutan-2-yl)-4-(isopropylamino)benzo[5,6][1,4]dioxino [2,3-b]pyridine-3-carboxamide], the IC50 came out at 160 nM.

In the case of `CC(C)Nc1c(C(=O)NCC2(CO)CC2)cnc2c1Oc1cc(C#N)ccc1O2` [Example 11, 7-cyano-N-((1-(hydroxymethyl)cyclopropyl)methyl)-4-(isopropylamino)benzo [5,6][1,4]dioxino[2,3-b]pyridine-3-carboxamide], the IC50 worked out at 440 nM.

As for `CC(C)Nc1c(C(=O)NCc2nnc[nH]2)cnc2c1Oc1cc(C#N)ccc1O2` [Example 12, N-((4H-1,2,4-triazol-3-yl)methyl)-7-cyano-4-(isopropylamino)benzo[5,6][1,4]dioxino [2,3-b]pyridine-3-carboxamide], the IC50 came to 140 nM.

With `CC(C)Nc1c(C(=O)NCc2cnco2)cnc2c1Oc1cc(C#N)ccc1O2` [Example 13, 7-cyano-4-(isopropylamino)-N-(oxazol-5-ylmethyl)benzo[5,6][1,4]dioxino[2,3-b]pyridine-3-carboxamide], the IC50 turned out to be 180 nM. Same read-out and setting: under `Cc1cc(CNC(=O)c2cnc3c(c2NC(C)C)Oc2cc(C#N)ccc2O3)on1` [Example 14, 7-cyano-4-(isopropylamino)-N-((3-methylisoxazol-5-yl)methyl)benzo[5,6][1,4]dioxino[2,3-b]pyridine-3-carboxamide] stands 530 nM; under `CC(C)Nc1c(C(=O)NCCC(C)(C)O)cnc2c1Oc1cc(C#N)ccc1O2` [Example 15, 7-cyano-N-(3-hydroxy-3-methylbutyl)-4-(isopropylamino)benzo[5,6][1,4]dioxino [2,3-b]pyridine-3-carboxamide], 22 nM; under `CC(C)CCNC(=O)c1cnc2c(c1NC(C)C)Oc1cc(C#N)ccc1O2` [Example 16, 7-cyano-N-isopentyl-4-(isopropylamino)benzo[5,6][1,4]dioxino[2,3-b]pyridine-3-carboxamide], 23 nM. Regarding `CC(C)Nc1c(C(=O)N[C@H]2CC[C@H](N)CC2)cnc2c1Oc1cc(C#N)ccc1O2` [Example 17, N-((1R,4R)-4-aminocyclohexyl)-7-cyano-4-(isopropylamino)benzo[5,6][1,4]dioxino [2,3-b]pyridine-3-carboxamide], the IC50 was found to be 34 nM. As to `CC(C)Nc1c(C(=O)NCC2(CO)COC2)cnc2c1Oc1cc(C#N)ccc1O2` [Example 18, 7-cyano-N-((3-(hydroxymethyl)oxetan-3-yl)methyl)-4-(isopropylamino)benzo [5,6][1,4]dioxino[2,3-b]pyridine-3-carboxamide], the IC50 worked out at 240 nM.

As for `CC(C)Nc1c(C(=O)NCc2nccs2)cnc2c1Oc1cc(C#N)ccc1O2` [Example 19, 7-cyano-4-(isopropylamino)-N-(thiazol-2-ylmethyl)benzo[5,6][1,4]dioxino[2,3-b]pyridine-3-carboxamide], the IC50 came to 170 nM.

Consider `CC(C)Nc1c(C(=O)NC2CCNCC2)cnc2c1Oc1cc(C#N)ccc1O2` [Example 20, 7-cyano-4-(isopropylamino)-N-(piperidin-4-yl)benzo[5,6][1,4]dioxino[2,3-b]pyridine-3-carboxamide], for which the IC50 came to 85 nM.
